Laboratory results published in patent publication US9920074B2 (ACEA BIOSCIENCES INC., priority 2013, dated 2018).

Tests used:
Assay type in all cases: cell-based
[1] = target: T1, Btk (Tyr223) phosphorylation in Ramos cells (Homo sapiens, UniProt Q06187); assay: Western blotting assay for Btk (Example 73); conditions: 45 min, 6 μg/mL anti-IgM, read-out: Btk Inhibition
T1 construct: endogenous in cells; host or cells: Ramos cells (ATCC)
Description: (§1) All cell lines were obtained from the American Type Culture Collection and were maintained at 37° C. with 5% CO2. Ramos cell line was maintained in media supplemented with 10% fetal bovine serum, penicillin (100 units/mL) and streptomycin (100 μg/mL). NK-92 cell line was maintained in media supplemented with 10% fetal bovine serum and 10% horse serum, penicillin (100 units/mL) and streptomycin (100 μg/mL), IL-2 10 ng/mL. Goat F(ab′)2 Anti-Human IgM-UNLB was obtained from SouthernBiotech. IL-2 was obtained from Peprotech.
(§2) Ramos cells were treated with compounds at indicated doses for 45 min at room temperature, followed by stimulation of 6 μg/mL of anti-IgM for 30 min, and then lysed. Western blots were performed on the cell lysate using Phospho-Btk (Tyr223), Phospho-Btk (Tyr551), Btk, Phospho-PLCγ2 (Tyr1217), PLCγ2, Phospho-p44/42 MAPK (Erk1/2) (Thr202/Tyr204) and p44/42 MAPK (Erk1/2) antibodies (Cell Signaling Technology). The density of blotting band was acquired using ImageJ software, and the IC50 of Btk (Tyr223) phosphorylation was fitted using a non-linear regression model by GraphPad Prism.

[2] = target: T1, Btk (Tyr223) phosphorylation in Ramos cells; assay: Btk Tyr223 phosphorylation inhibition, western blotting assay (Example 72); conditions: Btk Tyr223 phosphorylation, 45 min, 12 μg/mL IgM, read-out: BTK Inhibition
Description: Ramos cell line was obtained from the American Type Culture Collection and was maintained at 37° C. with 5% CO2, in media supplemented with 10% fetal bovine serum, penicillin (100 units/mL) and streptomycin (100 μg/mL), Goat F(ab′)2 Anti-Human IgM-UNLB was obtained from SouthernBiotech.
as §2, with “12” for “6”, “IgM” for “anti-IgM”, “Prism version 4.0.” for “Prism.”

[3] = system: Stat5 phosphorylation in NK-92 cells; assay: Western blotting assay for Stat5; conditions: NK92, 1 hour, IL-2 stimulation, read-out: Stat5 inhibition
Description: as §1
(§3) NK-92 cells were treated with compounds at the dosed indicated for 1 hour in incubator, followed by the IL-2 stimulation for 15 minutes. Cells were then collected and lysed to prepare the cellular extraction. Western blots were performed on cell lysate using Phospho-Jak3, Jak3, Phospho-Stat5, Stat5 antibodies (Cell Signaling Technology). The intensity of blotting band was acquired using Image Lab (Bio-Rad) software, and the IC50 of target was generated with GraphPad Prism.

[4] = target: T2, free Btk protein from Ramos cells (Homo sapiens, UniProt Q06187); assay: Btk target site occupancy ELISA assay; conditions: 1 h, ELISA, read-out: Btk Occupancy Assay (IC50)
T2 construct: endogenous in cells; host or cells: Ramos cells (ATCC)
T2 sequence (Q06187 whole entry): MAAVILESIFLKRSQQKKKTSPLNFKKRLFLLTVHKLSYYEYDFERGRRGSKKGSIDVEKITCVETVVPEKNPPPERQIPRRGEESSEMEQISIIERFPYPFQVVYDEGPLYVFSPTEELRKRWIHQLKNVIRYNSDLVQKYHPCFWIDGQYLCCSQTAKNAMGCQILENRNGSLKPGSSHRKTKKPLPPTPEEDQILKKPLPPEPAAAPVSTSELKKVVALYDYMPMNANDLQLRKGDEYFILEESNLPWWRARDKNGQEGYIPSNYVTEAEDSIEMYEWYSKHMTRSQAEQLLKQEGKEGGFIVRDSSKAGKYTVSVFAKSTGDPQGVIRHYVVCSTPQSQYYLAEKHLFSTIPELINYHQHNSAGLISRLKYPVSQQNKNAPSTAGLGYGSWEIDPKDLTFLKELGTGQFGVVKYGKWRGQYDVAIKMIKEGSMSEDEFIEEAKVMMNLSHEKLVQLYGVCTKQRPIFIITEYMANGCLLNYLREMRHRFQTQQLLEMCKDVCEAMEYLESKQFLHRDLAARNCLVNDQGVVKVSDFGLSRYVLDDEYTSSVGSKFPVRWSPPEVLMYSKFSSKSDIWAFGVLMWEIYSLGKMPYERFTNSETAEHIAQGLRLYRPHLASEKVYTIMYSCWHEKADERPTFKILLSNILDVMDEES
Description: (§4) Ramos cells were treated with Compound I-1 at indicated concentrations for 1 h, followed by stimulation with 6 μg/mL of IgM for 30 mm, and then lysed. Lysates were incubated with Compound I-21 (biotin labeled) at a final concentration of 1 μM in a PBS, 0.05% Tween-20, 1% BSA solution while shaking for 1 h at room temperature. Samples were transferred to a streptavidin-coated 96-well ELISA plate and mixed while shaking for 1 h at room temperature. The Btk antibody (BD 611116, 1:1000 dilution in PBS+0.05% Tween-20+0.5% BSA) was then applied and incubated for 1 h at room temperature. After wash, goat anti-mouse-HRP (Pierce 31432, 1:1000 dilution in PBS+0.05% Tween-20+0.5% BSA) was added and incubated for 1 h at room temperature. The ELISA was developed with addition of tetramethyl benzidine (TMB) followed by Stop Solution and read at OD 450 nm.
as §4, with “Compounds” for “Compound I-1”, “anti-IgM” for “IgM”, “diluted” for “dilution”, “tetramethylbenzidine” for “tetramethyl benzidine”

[5] = target: T3, Jak3 phosphorylation in NK-92 cells (Homo sapiens, UniProt P52333); assay: Western blotting assay for Jak3; conditions: 1 hour, IL-2 stimulation, read-out: Jak3 inhibition
T3 construct: endogenous in cells; host or cells: NK-92 cells (ATCC)
T3 sequence (P52333 1-1124): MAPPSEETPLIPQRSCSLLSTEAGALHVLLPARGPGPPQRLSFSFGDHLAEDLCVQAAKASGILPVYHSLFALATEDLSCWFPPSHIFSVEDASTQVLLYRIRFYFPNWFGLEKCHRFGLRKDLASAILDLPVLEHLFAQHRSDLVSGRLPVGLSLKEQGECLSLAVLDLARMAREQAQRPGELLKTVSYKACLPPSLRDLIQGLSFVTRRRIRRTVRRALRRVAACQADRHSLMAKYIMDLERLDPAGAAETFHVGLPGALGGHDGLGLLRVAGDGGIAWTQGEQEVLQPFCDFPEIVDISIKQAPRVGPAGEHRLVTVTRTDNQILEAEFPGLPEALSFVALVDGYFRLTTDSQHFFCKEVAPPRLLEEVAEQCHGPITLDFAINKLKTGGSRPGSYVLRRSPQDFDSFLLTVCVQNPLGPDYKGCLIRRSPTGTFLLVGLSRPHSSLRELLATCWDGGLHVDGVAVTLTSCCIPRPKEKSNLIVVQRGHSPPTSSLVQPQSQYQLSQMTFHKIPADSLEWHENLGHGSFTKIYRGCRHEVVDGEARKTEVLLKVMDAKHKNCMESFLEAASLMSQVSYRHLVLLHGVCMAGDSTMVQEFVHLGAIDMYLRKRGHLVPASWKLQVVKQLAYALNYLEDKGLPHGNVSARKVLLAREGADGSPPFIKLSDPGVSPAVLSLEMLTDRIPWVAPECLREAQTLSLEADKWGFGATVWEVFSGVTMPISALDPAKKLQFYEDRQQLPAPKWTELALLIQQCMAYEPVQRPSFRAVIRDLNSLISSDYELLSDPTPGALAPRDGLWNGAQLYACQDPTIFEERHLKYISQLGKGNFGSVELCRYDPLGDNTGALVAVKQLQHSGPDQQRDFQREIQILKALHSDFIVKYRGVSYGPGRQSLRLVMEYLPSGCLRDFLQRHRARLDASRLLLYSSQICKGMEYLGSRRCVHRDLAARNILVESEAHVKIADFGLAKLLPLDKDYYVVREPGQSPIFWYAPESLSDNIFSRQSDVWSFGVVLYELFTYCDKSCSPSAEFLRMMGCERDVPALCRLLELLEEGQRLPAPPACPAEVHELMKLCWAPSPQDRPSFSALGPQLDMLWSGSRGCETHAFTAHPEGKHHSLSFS
Description: as §1, §3

T1 sequence (Q06187 whole entry): as the sequence (Q06187 whole entry) above

| IC50 [1] [nM] | IC50 [2] [nM] | IC50 [3] [nM] | IC50 [4] [nM] | IC50 [5] [nM] | SMILES |
| --- | --- | --- | --- | --- | --- |
| ≤ 10 | < 10 | 200 to 400 | – | – | C=CC(=O)Nc1cccc(Oc2nc(Nc3ccc(N4CCN(CCF)CC4)c(F)c3)ncc2OC)c1 [Compound I-3, N-(3-(2-(3-fluoro-4-(4-(2-fluoroethyl)piperazin-1-yl)phenylamino)-5-methoxypyrimidin-4-yloxy)phenyl)acrylamide] |
| ≤ 10 | < 10 | 200 to 400 | – | – | C=CC(=O)Nc1cccc(Nc2nc(Nc3ccc(N4CCN(CCF)CC4)c(F)c3)ncc2F)c1 [Compound I-4, N-(3-((5-fluoro-2-((3-fluoro-4-(4-(2-fluoroethyl)piperazin-1yl)phenyl)amino)pyrimidin-4-yl)amino)phenyl)acrylamide] |
| ≤ 10 | < 10 | 200 to 400 | – | – | C=CC(=O)Nc1cccc(Nc2nc(Nc3ccc(N4CCN(CCF)CC4)cc3)ncc2OC)c1 [Compound I-5] |
| ≤ 10 | < 10 | 200 to 400 | – | – | C=CC(=O)Nc1ccccc1Nc1nc(Nc2ccc(N3CCN(CCF)CC3)cc2)ncc1F [Compound I-6, N-(2-(5-fluoro-2-(4-(4-(2-fluoroethyl)piperazin-1-yl)phenylamino)pyrimidin-4-ylamino)phenyl)acrylamide] |
| 10 to 100 | 10 to 100 | ≥ 400 | – | – | C=CC(=O)Nc1cccc(Nc2nc(Nc3ccc(N4CCN(CCF)CC4)c(F)c3)ncc2OC)c1 [Compound I-7] |
| – | < 10 | – | – | – | C=CC(=O)Nc1cccc(Oc2nc(Nc3ccc(N4CCN(CCF)CC4)c(F)c3)ncc2F)c1 [Compound I-8] |
| ≤ 10 | < 10 | 200 to 400 | – | – | C=CC(=O)Nc1cccc(Oc2nc(Nc3ccc(N4CCN(CCF)CC4)cc3)ncc2OC)c1 [Compound I-9] |
| ≤ 10 | < 10 | 200 to 400 | 10 to 100 | – | C=CC(=O)Nc1cccc(Oc2nc(Nc3ccc(OCCOC)cc3)nc3[nH]ccc23)c1 [Compound I-10, N-(3-(2-(4-(2-methoxyethoxy)phenylamino)-7H-pyrrolo[2,3-d]pyrimidin-4-yloxy)phenyl)acrylamide] |
| 10 to 100 | 10 to 100 | ≥ 400 | – | – | C=CC(=O)Nc1cccc(Nc2nc(Nc3ccc(OCCOC)cc3)nc3[nH]ccc23)c1 [Compound I-11, N-(3-(2-(4-(2-methoxyethoxy)phenylamino)-7H-pyrrolo[2,3-d]pyrimidin-4-ylamino)phenyl)acrylamide] |
| 10 to 100 | 10 to 100 | 200 to 400 | – | – | C=CC(=O)Nc1cccc(Oc2nc(Nc3ccc(N4CCN(CCF)CC4)cc3)ncc2F)c1 [Compound I-12] |
| ≤ 10 | < 10 | ≥ 400 | ≤ 10 | – | C=CC(=O)Nc1cccc(Oc2nc(Nc3ccc(N[C@H]4CCN(CCF)C4)cc3)ncc2OC)c1 [Compound I-13, (S)—N-(3-(2-(4-(1-(2-fluoroethyl)pyrrolidin-3-ylamino)phenylamino)-5-methoxypyrimidin-4-yloxy)phenyl)acrylamide] |
| 10 to 100 | 10 to 100 | ≥ 400 | – | – | C=CC(=O)Nc1cccc(Oc2nc(Nc3ccc(N[C@@H]4CCN(CCF)C4)cc3)ncc2OC)c1 [Compound I-14, (R)—N-(3-(2-(4-(1-(2-fluoroethyl)pyrrolidin-3-ylamino)phenylamino)-5-methoxypyrimidin-4-yloxy)phenyl)acrylamide] |
| ≤ 10 | < 10 | ≥ 400 | – | – | C=CC(=O)Nc1cccc(Nc2nc(Nc3ccc(N[C@H]4CCN(CCF)C4)cc3)ncc2F)c1 [Compound I-15] |
| ≤ 10 | < 10 | ≥ 400 | – | – | C=CC(=O)Nc1cccc(Nc2nc(Nc3ccc(N[C@H]4CCN(CCF)C4)cc3)ncc2OC)c1 [Compound I-16, (S)—N-(3-(2-(4-(1-(2-fluoroethyl)pyrrolidin-3-ylamino)phenylamino)-5-methoxypyrimidin-4-ylamino)phenyl)acrylamide] |
| ≤ 10 | < 10 | ≥ 400 | – | – | C=CC(=O)Nc1cccc(Nc2nc(Nc3ccc(N[C@@H]4CCN(CCF)C4)cc3)ncc2OC)c1 [Compound I-17, (R)—N-(3-(2-(4-(1-(2-fluoroethyl)pyrrolidin-3-ylamino)phenylamino)-5-methoxypyrimidin-4-ylamino)phenyl)acrylamide] |
| ≤ 10 | < 10 | 200 to 400 | – | – | C=CC(=O)Nc1cccc(Nc2nc(Nc3ccc(N[C@@H]4CCN(CCF)C4)cc3)ncc2F)c1 [Compound I-18] |
| ≤ 10 | – | ≥ 400 | ≤ 10 | ≥ 400 | C=CC(=O)Nc1cccc(Oc2nc(Nc3ccc(N4CCN(CCOC)CC4)cc3)ncc2OC)c1 [Compound I-25a, N-(3-(5-methoxy-2-(4-(4-(2-methoxyethyl)piperazin-1-yl)phenylamino)pyrimidin-4-yloxy)phenyl)acrylamide] |
